Results reported in ChEMBL document CHEMBL1201862, “PubChem BioAssay data set” (2004).
Active and inactive are the calls of the source.

Assays:
[1] = biological target: T1, Long-chain-fatty-acid--AMP ligase FadD28 (Mycobacterium tuberculosis, UniProt P9WQ59); assay: Fluorescence polarization aasay to screen for inhibitors that compete for the binding of FadD28 to a bisubstrate Measured in Biochemical System Using Plate Reader - 2147-01_Inhibitor_Dose_CherryPick_Activity.; assay type: functional, Mycobacterium tuberculosis H37Rv
T1 sequence (P9WQ59 whole entry): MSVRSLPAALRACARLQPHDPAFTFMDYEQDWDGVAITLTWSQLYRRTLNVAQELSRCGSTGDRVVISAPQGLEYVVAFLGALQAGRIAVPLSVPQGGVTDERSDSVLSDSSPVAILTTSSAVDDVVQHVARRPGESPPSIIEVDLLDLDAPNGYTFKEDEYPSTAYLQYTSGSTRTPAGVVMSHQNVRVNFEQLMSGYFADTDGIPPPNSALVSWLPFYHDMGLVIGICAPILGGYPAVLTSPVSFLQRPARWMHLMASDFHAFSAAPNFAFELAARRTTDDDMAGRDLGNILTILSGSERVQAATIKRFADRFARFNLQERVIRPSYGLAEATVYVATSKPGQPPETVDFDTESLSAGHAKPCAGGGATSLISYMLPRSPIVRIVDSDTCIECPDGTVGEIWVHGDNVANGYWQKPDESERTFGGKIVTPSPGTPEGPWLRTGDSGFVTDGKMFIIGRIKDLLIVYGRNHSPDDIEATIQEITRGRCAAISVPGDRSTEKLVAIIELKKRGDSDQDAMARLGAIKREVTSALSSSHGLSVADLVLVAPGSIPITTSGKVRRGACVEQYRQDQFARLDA

[2] = biological target: FAD-linked sulfhydryl oxidase ALR (Homo sapiens, UniProt P55789); assay: inhibitors of human ALR sulfhydryl oxidase, dose response, biochemical, H2O2 detection, luminescence, cherry-pick (AID 493248)
Large T antigen = Large T antigen (Simian virus 40, UniProt P03070); assay type: functional, Betapolyomavirus macacae;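 further: Confirmatory-stage PubChem screen for compounds that inhibit SV40 T antigen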
[3] = NIH-3T3 fibroblast cytotoxicity, dose response, cytotoxicity control, cell-based, fluorescence, Alamar Blue, secondary assay (AID 2327); assay type: functional;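 further: NIH-3T3 mouse fibroblasts cultured with fluconazole at 8 µg/mL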
[4] = biological target: DNA dC->dU-editing enzyme APOBEC-3G (Homo sapiens, UniProt Q9HC16); assay: Dose Response confirmation of small molecule APOBEC3G DNA Deaminase Inhibitors via a fluorescence-based single-stranded DNA deaminase assay. [Related pubchem assays (depositor defined):AID493012, AID493028]; assay type: functional
[5] = C. albicans growth with fluconazole, confirmation, fluorescence, retest (AID 2467); assay type: functional, cell-based
Protein skinhead-1 = biological target: T2, Protein skinhead-1 (Caenorhabditis elegans, UniProt P34707); assay type: functional
T2 sequence (P34707 whole entry): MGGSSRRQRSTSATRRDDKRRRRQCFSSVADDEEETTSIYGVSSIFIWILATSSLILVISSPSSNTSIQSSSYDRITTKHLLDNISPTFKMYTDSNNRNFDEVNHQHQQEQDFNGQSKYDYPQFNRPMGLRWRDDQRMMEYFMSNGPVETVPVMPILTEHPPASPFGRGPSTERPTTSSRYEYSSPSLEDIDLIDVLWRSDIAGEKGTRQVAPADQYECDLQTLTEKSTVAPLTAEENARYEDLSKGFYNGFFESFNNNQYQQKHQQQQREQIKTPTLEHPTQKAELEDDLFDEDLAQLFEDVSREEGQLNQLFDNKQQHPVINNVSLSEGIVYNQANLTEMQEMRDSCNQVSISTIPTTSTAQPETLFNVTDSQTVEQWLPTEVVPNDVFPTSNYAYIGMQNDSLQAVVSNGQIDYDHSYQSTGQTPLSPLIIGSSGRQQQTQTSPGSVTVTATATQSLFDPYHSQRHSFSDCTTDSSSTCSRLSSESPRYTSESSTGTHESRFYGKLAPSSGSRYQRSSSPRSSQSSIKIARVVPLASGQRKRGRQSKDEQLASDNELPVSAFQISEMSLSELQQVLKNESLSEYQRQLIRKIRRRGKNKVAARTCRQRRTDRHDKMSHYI

[6] = Luminescence Cell-Based Dose Response HTS to Identify Activators of Luciferase Translation or Activity in H4 […] Cells. [Related pubchem assays: 1829 (Project Summary), 1814 (Primary HTS)]; assay type: functional
[7] = Luminescence Cell-Based Dose Confirmation HTS to Identify Activators of 5'UTR Stem-Loop Driven Alpha-Synuclein mRNA Translation in H4 Neuroglioblastoma Cells. [Related pubchem assays: 1829 (Project Summary), 1814 (Primary HTS)]; assay type: functional
H4 = assay: Luminescence Cell-Based Dose Response HTS to Identify Activators of 5'UTR Stem-Loop Driven Prion Protein mRNA Translation in H4 Neuroglioblastoma Cells. [Related pubchem assays: 1829 (Project Summary), 1814 (Primary HTS)]; assay type: functional; details: Homo sapiens
[8] = intracellular Trypanosoma cruzi inhibitors in host cells – cell-based, plate reader, cherry-pick samples, set 3, dose response (AID 651818); assay type: functional;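 further: compounds incubated with infected cells for about four days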
[9] = biological target: T3, Polyadenylate-binding protein 1 (Homo sapiens, UniProt P11940); assay: PABP1 MLLE–PAM2 binding inhibitor potency, dose response, biochemical, fluorescence polarization, FITC-PAM2 peptide (AID 602259); assay type: functional; details: read-out: IC50_Mean
[10] = biological target: T3, Polyadenylate-binding protein 1; assay: PABP1 MLLE–PAM2 interaction inhibitors, dose response, miRNA deadenylation inhibitor project, biochemical, fluorescence polarization, Cy5-PAM2 peptide, secondary (AID 602260); assay type: functional; details: read-out: IC50_Mean
[11] = biological target: Induced myeloid leukemia cell differentiation protein Mcl-1 (Homo sapiens, UniProt Q07820); assay type: functional
[12] = cytotoxicity toward DRD oncogenic fibroblasts, dose response, cell-based, non-viral oncogenic, luminescence (AID 1934); assay type: functional; details: Homo sapiens
BJ [13] = assay: cytotoxicity toward BJ-TERT fibroblasts, dose response, cell-based, RAS-independent, luminescence (AID 1933); assay type: functional; details: Homo sapiens
BJ [14] = assay: cytotoxicity toward BJ-TERT-LT-ST fibroblasts, dose response, cell-based, RAS-independent, luminescence (AID 1935); assay type: functional; details: Homo sapiens;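 further: BJ fibroblasts immortalized with TERT plus LT and ST oncogenes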
BJ [15] = assay: cells; assay type: functional, cell-based; details: Homo sapiens
Nonstructural protein 1 = Nonstructural protein 1 (Influenza A virus, UniProt Q194T2); assay type: functional, Influenza A virus (A/California/07/2009(H1N1))
Fatty acid synthase = Fatty acid synthase (Homo sapiens, UniProt P49327); assay: FAS thioesterase domain inhibitors, dose response, biochemical, kinetic fluorescence intensity (AID 624326); assay type: functional;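 further: rate of fluorescence rise from hydrolysis of a fluorogenic O-methyl fluorescein ester substrate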
INS1 = assay: beta cell apoptosis inhibitors, cytokine rescue, dose response, luminescence, retest (AID 449756); assay type: functional, cell-based; details: Rattus norvegicus;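 further: cell death triggered by IL-1 beta plus TNF-alpha plus IFN-gamma mixture; protective hits raise ATP signal compared with cytokine alone wells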
[16] = biological target: T4, Short transient receptor potential channel 4 (Mus musculus, UniProt Q9QUQ5); assay: mouse TRPC4 channel inhibitors, dose response, cell-based, HEK293 TRPC4/mu-opioid, Fluo-4 calcium (AID 434942); assay type: functional;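 further: potency of inhibitors blocking the TRPC4 calcium response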
T4 sequence (Q9QUQ5 whole entry): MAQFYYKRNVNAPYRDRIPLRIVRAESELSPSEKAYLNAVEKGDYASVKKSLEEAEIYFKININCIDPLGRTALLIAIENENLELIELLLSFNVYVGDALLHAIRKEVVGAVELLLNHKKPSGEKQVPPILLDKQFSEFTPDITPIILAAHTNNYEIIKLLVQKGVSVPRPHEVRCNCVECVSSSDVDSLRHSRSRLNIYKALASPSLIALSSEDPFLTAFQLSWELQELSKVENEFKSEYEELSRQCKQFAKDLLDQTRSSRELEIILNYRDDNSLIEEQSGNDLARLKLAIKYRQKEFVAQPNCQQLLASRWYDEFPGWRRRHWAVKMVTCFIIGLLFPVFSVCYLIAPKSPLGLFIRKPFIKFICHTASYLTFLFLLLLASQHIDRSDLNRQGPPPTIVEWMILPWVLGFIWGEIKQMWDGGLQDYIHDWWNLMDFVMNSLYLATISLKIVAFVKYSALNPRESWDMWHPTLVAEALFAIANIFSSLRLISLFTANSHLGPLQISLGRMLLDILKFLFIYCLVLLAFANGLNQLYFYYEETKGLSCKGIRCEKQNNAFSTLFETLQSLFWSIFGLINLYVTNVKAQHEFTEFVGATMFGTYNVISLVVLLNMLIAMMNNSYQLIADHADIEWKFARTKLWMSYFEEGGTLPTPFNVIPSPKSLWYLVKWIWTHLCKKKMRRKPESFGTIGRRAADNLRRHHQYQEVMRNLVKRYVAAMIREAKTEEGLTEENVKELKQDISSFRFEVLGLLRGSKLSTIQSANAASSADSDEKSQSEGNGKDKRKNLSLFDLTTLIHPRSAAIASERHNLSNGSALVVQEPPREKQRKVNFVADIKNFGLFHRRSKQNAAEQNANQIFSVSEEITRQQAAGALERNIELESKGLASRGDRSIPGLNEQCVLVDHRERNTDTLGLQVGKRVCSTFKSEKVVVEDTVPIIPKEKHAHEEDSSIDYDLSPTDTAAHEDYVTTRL

[17] = inhibitors of clade B AD8 Env fusion, dose response, cell-based, cherry-pick (AID 652062); assay type: functional;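 further: luciferase signal from cell-cell fusion driven by HIV-1 clade B AD8 Env; potency is for inhibitors of fusion seen as a drop in luminescence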
[18] = inhibitors of HIV Env-driven cell fusion, dose response, cherry-pick (AID 652057); assay type: functional, cell-based

T3 sequence (P11940 whole entry): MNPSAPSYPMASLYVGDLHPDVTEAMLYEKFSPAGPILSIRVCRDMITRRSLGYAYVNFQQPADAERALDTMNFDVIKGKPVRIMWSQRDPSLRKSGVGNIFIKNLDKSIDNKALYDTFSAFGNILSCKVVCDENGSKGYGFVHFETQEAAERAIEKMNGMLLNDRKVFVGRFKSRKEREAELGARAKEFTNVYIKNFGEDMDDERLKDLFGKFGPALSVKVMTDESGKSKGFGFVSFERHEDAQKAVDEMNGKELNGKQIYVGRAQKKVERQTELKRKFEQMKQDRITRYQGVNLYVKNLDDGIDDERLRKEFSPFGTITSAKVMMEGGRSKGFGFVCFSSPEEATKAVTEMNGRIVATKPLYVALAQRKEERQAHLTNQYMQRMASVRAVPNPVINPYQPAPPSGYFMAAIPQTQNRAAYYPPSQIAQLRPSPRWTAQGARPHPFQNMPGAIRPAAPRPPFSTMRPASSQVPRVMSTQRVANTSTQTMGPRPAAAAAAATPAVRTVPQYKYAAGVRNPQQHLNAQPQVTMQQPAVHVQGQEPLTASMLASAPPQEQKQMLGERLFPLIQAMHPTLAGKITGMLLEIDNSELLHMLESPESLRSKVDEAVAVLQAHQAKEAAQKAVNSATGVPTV
Chain of Large T antigen (P03070 whole entry): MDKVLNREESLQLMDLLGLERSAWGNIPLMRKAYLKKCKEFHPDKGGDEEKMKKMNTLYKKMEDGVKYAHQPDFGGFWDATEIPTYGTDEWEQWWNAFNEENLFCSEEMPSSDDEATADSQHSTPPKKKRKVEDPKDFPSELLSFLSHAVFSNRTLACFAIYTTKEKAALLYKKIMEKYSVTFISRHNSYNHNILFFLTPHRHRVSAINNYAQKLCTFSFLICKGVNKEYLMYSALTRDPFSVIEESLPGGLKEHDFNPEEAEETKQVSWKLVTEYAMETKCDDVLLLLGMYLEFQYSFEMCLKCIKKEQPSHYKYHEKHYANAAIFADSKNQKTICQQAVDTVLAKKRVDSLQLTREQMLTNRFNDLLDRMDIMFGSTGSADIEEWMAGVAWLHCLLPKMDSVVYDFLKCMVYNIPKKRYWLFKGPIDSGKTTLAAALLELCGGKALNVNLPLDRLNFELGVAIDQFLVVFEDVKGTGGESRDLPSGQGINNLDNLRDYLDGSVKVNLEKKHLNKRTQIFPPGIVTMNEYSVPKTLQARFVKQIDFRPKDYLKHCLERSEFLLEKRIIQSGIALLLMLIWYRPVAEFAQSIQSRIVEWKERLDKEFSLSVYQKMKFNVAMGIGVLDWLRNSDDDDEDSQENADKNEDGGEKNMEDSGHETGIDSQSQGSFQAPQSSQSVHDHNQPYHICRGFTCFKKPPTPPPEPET
Chain of Induced myeloid leukemia cell differentiation protein Mcl-1 (Q07820 whole entry): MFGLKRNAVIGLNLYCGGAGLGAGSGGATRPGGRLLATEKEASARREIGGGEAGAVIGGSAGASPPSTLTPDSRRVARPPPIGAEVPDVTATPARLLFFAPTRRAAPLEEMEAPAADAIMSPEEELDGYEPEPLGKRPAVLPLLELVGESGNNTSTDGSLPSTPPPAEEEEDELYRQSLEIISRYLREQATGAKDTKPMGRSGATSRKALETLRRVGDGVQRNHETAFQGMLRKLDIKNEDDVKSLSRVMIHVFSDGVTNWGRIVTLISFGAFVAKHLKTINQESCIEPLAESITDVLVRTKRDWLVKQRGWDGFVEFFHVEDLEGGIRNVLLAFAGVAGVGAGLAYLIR
Chain of DNA dC->dU-editing enzyme APOBEC-3G (Q9HC16 whole entry): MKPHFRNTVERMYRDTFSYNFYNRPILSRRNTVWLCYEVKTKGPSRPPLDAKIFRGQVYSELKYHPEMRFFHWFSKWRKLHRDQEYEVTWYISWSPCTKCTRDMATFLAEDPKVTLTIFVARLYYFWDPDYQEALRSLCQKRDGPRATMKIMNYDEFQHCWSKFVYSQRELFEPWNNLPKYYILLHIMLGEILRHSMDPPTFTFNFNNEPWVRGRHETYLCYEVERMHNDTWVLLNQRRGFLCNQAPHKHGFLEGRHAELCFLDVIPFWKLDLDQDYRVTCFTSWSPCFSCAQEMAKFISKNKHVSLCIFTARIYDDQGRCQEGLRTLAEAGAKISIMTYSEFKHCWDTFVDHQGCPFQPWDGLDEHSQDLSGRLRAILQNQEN
Chain of Nonstructural protein 1 (Q194T2 whole entry, the tested form may be a part): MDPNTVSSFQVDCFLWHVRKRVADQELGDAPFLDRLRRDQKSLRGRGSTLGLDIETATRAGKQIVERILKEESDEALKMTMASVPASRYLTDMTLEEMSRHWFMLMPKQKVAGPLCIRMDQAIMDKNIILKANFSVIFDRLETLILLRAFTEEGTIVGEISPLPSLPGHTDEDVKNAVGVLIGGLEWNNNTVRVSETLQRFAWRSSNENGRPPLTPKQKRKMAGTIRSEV
Chain of Fatty acid synthase (P49327 whole entry, the tested form may be a part): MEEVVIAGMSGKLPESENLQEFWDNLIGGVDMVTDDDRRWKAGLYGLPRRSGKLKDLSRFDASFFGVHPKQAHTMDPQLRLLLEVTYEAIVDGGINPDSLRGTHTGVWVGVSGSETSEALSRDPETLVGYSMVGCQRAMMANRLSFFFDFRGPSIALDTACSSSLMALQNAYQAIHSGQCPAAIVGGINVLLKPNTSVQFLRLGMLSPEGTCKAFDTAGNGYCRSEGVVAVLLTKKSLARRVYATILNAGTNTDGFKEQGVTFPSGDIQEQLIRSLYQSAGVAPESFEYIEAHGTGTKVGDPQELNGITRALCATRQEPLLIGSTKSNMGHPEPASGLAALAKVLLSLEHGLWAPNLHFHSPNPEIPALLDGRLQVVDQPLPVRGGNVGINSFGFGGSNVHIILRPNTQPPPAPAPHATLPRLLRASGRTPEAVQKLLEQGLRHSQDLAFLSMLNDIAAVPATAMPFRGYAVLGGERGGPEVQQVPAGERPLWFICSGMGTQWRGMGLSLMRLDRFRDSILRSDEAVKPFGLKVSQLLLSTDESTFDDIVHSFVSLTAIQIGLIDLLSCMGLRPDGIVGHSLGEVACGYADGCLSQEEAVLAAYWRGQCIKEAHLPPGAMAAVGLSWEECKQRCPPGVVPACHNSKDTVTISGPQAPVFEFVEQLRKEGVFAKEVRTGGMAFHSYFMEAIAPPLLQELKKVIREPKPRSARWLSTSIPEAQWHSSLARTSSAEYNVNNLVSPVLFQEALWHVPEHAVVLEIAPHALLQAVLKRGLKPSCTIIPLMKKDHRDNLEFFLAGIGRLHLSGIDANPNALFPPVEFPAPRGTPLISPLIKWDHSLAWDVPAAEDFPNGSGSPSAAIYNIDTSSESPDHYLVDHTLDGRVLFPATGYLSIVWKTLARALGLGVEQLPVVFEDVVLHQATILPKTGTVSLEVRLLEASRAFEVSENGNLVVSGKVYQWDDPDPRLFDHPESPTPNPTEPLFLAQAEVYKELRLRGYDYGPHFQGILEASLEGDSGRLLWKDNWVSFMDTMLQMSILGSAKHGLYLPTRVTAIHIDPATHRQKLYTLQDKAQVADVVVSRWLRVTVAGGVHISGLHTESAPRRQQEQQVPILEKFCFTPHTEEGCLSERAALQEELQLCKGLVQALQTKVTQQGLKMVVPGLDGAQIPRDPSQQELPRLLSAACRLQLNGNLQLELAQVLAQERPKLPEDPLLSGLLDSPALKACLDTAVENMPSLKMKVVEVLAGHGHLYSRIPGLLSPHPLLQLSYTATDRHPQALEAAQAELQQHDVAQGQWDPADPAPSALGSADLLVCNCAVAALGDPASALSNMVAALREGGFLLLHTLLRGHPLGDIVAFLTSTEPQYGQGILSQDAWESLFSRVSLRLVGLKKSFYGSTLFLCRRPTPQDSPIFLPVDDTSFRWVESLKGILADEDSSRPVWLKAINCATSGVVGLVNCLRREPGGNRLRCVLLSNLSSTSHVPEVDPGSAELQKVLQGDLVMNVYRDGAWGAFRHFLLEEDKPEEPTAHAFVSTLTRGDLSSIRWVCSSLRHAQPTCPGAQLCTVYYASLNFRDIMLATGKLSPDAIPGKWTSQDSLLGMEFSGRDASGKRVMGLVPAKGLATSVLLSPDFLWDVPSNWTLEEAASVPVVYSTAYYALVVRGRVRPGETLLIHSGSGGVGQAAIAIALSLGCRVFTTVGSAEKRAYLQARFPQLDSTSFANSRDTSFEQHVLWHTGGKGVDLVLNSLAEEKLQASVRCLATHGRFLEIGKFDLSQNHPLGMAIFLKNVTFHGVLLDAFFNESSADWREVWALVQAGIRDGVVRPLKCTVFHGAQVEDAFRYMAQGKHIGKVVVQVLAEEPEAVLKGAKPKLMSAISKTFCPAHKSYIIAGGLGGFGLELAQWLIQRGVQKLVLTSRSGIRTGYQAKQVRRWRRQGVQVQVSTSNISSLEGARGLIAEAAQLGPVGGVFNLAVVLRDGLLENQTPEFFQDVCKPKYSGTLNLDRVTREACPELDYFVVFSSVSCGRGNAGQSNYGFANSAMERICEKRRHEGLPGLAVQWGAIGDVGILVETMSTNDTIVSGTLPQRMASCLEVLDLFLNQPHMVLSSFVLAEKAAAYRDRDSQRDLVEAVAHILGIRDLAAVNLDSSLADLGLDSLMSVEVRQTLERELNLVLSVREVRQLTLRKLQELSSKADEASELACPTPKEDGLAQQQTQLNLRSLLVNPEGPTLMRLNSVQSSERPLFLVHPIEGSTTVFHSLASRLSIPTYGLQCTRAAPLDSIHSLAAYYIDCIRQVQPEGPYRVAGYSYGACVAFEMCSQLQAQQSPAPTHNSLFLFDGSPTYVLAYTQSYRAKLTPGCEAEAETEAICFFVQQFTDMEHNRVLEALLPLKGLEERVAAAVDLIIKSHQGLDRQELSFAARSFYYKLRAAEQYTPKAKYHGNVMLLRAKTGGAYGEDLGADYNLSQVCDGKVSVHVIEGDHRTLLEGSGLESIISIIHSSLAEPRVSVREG
Chain of FAD-linked sulfhydryl oxidase ALR (P55789 whole entry): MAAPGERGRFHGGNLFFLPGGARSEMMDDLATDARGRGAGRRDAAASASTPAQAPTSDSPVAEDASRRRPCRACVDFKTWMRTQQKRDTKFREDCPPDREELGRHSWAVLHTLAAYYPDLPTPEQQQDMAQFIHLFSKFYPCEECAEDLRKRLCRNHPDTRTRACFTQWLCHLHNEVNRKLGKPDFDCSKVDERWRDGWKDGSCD

## CCc1nc2ccc(C(=O)NCCCn3ccnc3)cn2c1N(C)Cc1cc2ccccc2s1
[1]
  AC50: 74.3 µM (active)

## Oc1ccc(/C=N/n2c(S)nnc2COc2ccccc2)cc1O
[2]
  AC50: 0.005 µM (active)
Large T antigen
  IC50: 6.29 µM (active)
[3]
  EC50: 24.6 µM (active)
[4]
  IC50: 2.1 µM (active)
[5]
  EC50: > 38 µM (not active)

## CCc1nc2ccccc2n1CC(=O)N(C(C)CC)C1CCS(=O)(=O)C1 (centres undefined)
Protein skinhead-1
  IC50: > 100 µM (inactive)

## O=C(Nc1cccc2ccccc12)c1onc2c1CCCC2
[6]
  EC50: 78.7 µM (active)
[7]
  EC50: 0.192 µM (active)
H4
  EC50: > 120 µM (not active)

## COc1ccc(S(=O)(=O)Nc2ccc3c(c2)CC(=O)N([C@@H](C)CO)C[C@H](C)[C@@H](CN(C)Cc2ccc(-c4ccccc4)cc2)O3)cc1
[8]
  AC50: 2.07 µM (active)

## CC(C)CN=C(S)NC1CC2CCCC(C1)N2C1CCCCC1 (centres undefined)
[6]
  EC50: > 120 µM (not active)
[7]
  EC50: > 120 µM (not active)
H4
  EC50: 44.3 µM (active)

## CC(Sc1nnc(-c2cccnc2)n1-c1ccccc1)C(=O)NCc1ccc2c(c1)OCO2 (centres undefined)
[6]
  EC50: 16.5 µM (active)
[7]
  EC50: 9.46 µM (active)
H4
  EC50: 38 µM (active)

## COC(=O)c1cn(NC(=O)C2COc3ccccc3O2)c(=O)c2ccccc12 (centres undefined)
Protein skinhead-1
  IC50: > 100 µM (inactive)

## C[C@@H]1CN([C@H](C)CO)C(=O)c2cccc(NS(=O)(=O)c3cccs3)c2O[C@@H]1CN(C)C(=O)Nc1ccc(C(F)(F)F)cc1
[8]
  AC50: 8.07 µM (active)

## O=C(Nc1ccc2c(c1)OCO2)c1ccc(Br)o1
[6]
  EC50: > 120 µM (not active)
[7]
  EC50: 0.165 µM (active)
H4
  EC50: > 120 µM (not active)

## C[C@@H]1CN([C@H](C)CO)C(=O)Cc2cc(NS(=O)(=O)c3ccc(Cl)cc3)ccc2O[C@@H]1CN(C)Cc1ccc(Cl)c(Cl)c1
[8]
  AC50: 3.44 µM (active)

## CCC(c1nnnn1CCOC)N1CCN(Cc2ccccc2)CC1 (centres undefined)
Protein skinhead-1
  IC50: > 100 µM (inactive)

## CNc1sc(C(=O)c2ccccc2F)c(N)c1-c1nc2ccccc2s1
[9]
  IC50: 49.5 µM (inactive)
[10]
  IC50: > 66 µM (inactive)
[11]
  IC50: 4.92 µM (active)

## O=C(Cn1c2ccccc2c(=O)c2cc([N+](=O)[O-])ccc21)Nc1ccccc1Cl
[12]
  EC50: > 150 µM (inconclusive)
BJ [13]
  EC50: > 150 µM (not active)
BJ [14]
  EC50: > 75 µM (inconclusive)
BJ [15]
  EC50: > 150 µM (not active)

## COc1ccc(C(=O)NCCc2c[nH]c3ccccc23)cc1S(=O)(=O)N1CCCCC1C (centres undefined)
[1]
  AC50: 2.97 µM (active)

## CC1=NN(c2ccccc2)C(=O)/C1=C/c1ccc[nH]1
Nonstructural protein 1
  IC50: 33 µM (active)

## CCn1c(=O)c([N+](=O)[O-])c(N2CCN(Cc3ccc4c(c3)OCO4)CC2)c2ccccc21
Fatty acid synthase
  IC50: 1.8 µM (active)
INS1
  AC50: 26.1 µM (active)

## CC(NC(=O)c1ccco1)C(c1cccs1)N1CCN(c2ccccc2)CC1 (centres undefined)
[16]
  EC50: 0.376 µM (active)

## CC(C)NC(=O)Nc1ccc2c(c1)C(=O)N([C@H](C)CO)C[C@@H](C)[C@@H](CN(C)C(=O)CCC(F)(F)F)OCCCC[C@@H](C)O2
[17]
  AC50: 1.02 µM (active)
[18]
  AC50: < 0.26 µM (active)

## Cn1c(-c2ccc(F)cc2)cnc1NCc1ccc(F)cc1F
[16]
  EC50: 2.66 µM (active)

## COC(=O)CSc1nnc(SCc2ccc(OC)cc2)s1
Protein skinhead-1
  IC50: > 100 µM (inactive)

## C[C@H]1CN([C@@H](C)CO)C(=O)Cc2cc(NC(=O)Cc3ccccc3)ccc2O[C@H]1CN(C)Cc1ccc(-c2ccccc2)cc1
[8]
  AC50: 2.79 µM (active)

## CSC(=NCCCN1CCOCC1)NS(=O)(=O)c1cccs1
Protein skinhead-1
  IC50: > 100 µM (inactive)

## Cc1ccc(C(C(=O)NC(C)(C)C)N(C(=O)CCC(=O)Nc2ccccn2)c2ccccc2F)cc1 (centres undefined)
[16]
  EC50: 2.99 µM (active)

## C[C@H]1CN([C@@H](C)CO)C(=O)c2cc(NC(=O)Nc3ccc(C(F)(F)F)cc3)ccc2O[C@H]1CN(C)Cc1ccc2c(c1)OCO2
[8]
  AC50: 4.18 µM (active)

## Cc1cccc(S(=O)(=O)N/N=c2\sc3ccccc3n2C)c1
[6]
  EC50: 10.1 µM (active)
[7]
  EC50: 5.13 µM (active)
H4
  EC50: 23.2 µM (active)

## C[C@@H]1CN([C@H](C)CO)C(=O)c2cc(NC(=O)Nc3cccc4ccccc34)ccc2O[C@H]1CN(C)Cc1ccc(-c2ccccc2)cc1
[8]
  AC50: 2.17 µM (active)

## O=C(CSc1nc(O)c(C2CCCCC2)c(O)n1)NCC1CCCO1 (centres undefined)
Protein skinhead-1
  IC50: > 100 µM (inactive)
